The numbers were not newly measured in patent US20030203881A1, “Method of treating neurologic disorders” (priority 2000, published 2003), which cites them from elsewhere.

For data set [1], the system named is osteoarthritis in dog models. Particulars: prophylactic administration.
A further data set relates to neurons. Conditions: tissue culture.
In a further data set the test system is inflammatory cells. Conditions: EAE.
For the next data set, the system named is microglial response. Conditions: experimental model of stroke, around stroke lesions.
Data set [2] concerns patients with mild and moderate arthritis.

In the case of `C[C@H]1c2cccc(O)c2C(=O)C2=C(O)[C@]3(O)C(=O)C(C(N)=O)=C(O)[C@@H](N(C)C)[C@@H]3[C@@H](O)[C@@H]21` [doxycycline], in data set [1], the severity of osteoarthritis entry is reported as “markedly reduced the severity of osteoarthritis”.

Regarding `CN(C)c1ccc(O)c2c1C[C@H]1C[C@H]3[C@H](N(C)C)C(=O)C(C(N)=O)=C(O)[C@@]3(O)C(=O)C1=C2O` [minocycline], the “protection of neurons against death” value in the data set with neurons is listed as “protects neurons against death”. Also, the “invasion of inflammatory cells into the CNS” value in the data set with inflammatory cells is “prevents the invasion of inflammatory cells into the CNS”. For the same compound, the “microglial response in the area surrounding areas of brain ischemia” value in the data set with microglial response is “reduced the microglial response”. In addition, in data set [2], the “efficacy in patients with arthritis” value is given as “effective” and the “safety in patients with arthritis” value was “safe”.
